Consider 5 compounds from PMC10175918 (Communications Biology, 2023).

Common to all, as to experiment: TGFα-shedding assay-based GPCR screening with chimeric Gα subunit proteins
What all share (type): cell-based

The target in experiment [1] is T1, 348 GPCRs (Homo sapiens, UniProt P18825).
T1 construct: expressed in transfected cells; host or cells: HEK293A
T1 sequence (P18825 1-462): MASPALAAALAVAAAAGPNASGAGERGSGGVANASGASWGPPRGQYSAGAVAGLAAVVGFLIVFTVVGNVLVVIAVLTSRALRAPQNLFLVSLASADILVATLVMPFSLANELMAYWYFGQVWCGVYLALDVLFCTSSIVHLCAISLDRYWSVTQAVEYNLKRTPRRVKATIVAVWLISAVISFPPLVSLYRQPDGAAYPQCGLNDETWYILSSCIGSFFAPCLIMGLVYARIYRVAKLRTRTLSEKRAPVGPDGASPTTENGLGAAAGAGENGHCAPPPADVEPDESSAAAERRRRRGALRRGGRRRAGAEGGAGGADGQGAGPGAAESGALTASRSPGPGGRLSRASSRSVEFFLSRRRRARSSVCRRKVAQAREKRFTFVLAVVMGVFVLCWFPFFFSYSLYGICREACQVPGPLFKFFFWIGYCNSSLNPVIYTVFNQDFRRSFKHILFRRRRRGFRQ

The target of experiment [2] is T2, 348 GPCRs (Homo sapiens, UniProt P32248).
T2 construct: expressed in transfected cells; host or cells: HEK293A
T2 sequence (P32248 25-378): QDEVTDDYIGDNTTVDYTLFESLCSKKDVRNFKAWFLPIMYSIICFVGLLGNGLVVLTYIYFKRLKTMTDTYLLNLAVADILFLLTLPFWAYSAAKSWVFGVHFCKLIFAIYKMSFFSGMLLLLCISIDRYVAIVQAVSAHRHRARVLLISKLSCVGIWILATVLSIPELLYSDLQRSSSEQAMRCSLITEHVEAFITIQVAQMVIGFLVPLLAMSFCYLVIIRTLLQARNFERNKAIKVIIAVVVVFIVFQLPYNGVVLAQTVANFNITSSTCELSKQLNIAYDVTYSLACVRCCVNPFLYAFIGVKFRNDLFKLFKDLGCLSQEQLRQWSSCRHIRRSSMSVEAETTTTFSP
Particulars: CCR7 (C-C motif chemokine receptor 7); 10µM, Favipiravir 100μM.

Experiment [3] has as its target T3, 348 GPCRs (Homo sapiens, UniProt Q13639).
T3 construct: expressed in transfected cells; host or cells: HEK293A
Particulars: 10µM, Favipiravir 100μM.

Experiment [4] concerns the target T4, 348 GPCRs (Homo sapiens, UniProt Q8IZF4).
T4 construct: expressed in transfected cells; host or cells: HEK293A
T4 sequence (Q8IZF4 22-528): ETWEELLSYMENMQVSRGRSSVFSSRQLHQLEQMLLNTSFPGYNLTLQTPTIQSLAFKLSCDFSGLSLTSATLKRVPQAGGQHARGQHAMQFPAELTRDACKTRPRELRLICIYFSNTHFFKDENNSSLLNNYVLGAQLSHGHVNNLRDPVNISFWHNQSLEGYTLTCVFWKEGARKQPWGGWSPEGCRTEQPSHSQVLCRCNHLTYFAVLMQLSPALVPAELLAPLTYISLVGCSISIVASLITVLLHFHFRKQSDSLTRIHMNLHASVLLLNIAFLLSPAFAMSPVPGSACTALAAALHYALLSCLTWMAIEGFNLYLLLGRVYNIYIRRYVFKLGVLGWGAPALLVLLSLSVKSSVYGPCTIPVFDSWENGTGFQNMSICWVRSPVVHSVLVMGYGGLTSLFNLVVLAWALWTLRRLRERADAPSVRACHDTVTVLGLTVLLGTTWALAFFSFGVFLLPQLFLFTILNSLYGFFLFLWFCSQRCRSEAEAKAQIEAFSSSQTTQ

The target of experiment [5] is T5, 348 GPCRs (Homo sapiens, UniProt Q9P1P5).
T5 construct: expressed in transfected cells; host or cells: HEK293A
T5 sequence (Q9P1P5 1-351): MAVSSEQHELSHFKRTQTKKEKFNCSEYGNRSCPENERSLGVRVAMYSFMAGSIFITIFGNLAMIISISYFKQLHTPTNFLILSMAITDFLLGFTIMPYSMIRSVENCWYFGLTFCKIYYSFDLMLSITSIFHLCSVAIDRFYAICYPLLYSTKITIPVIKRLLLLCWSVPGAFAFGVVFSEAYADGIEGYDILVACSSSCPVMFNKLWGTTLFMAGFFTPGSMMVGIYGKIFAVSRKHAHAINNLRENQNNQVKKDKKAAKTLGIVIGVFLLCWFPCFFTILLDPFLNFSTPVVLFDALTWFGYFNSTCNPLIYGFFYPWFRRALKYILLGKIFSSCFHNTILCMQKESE
Particulars: 10µM, Favipiravir 100μM.

Experiment [6] concerns the target T6, 348 GPCRs (Homo sapiens, UniProt Q9NQS5).
T6 construct: expressed in transfected cells; host or cells: HEK293A
Particulars: 10µM, Favipiravir 100μM.

In experiment [7] the target is T7, 348 GPCRs (Homo sapiens, UniProt P32302).
T7 construct: expressed in transfected cells; host or cells: HEK293A
T7 sequence (P32302 1-372): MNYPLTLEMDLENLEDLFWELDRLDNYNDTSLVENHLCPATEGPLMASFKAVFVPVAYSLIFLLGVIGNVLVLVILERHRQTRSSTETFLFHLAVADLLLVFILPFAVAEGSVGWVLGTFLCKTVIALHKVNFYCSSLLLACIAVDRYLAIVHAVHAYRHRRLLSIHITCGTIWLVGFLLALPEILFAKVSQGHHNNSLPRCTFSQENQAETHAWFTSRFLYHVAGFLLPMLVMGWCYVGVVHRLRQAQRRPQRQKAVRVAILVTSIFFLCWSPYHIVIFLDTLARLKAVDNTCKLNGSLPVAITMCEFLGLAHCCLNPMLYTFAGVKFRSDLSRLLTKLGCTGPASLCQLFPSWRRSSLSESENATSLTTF

The target in experiment [8] is 348 GPCRs (Homo sapiens, UniProt P41595). Particulars: 10µM, Favipiravir 100μM.
Chain of 348 GPCRs (Homo sapiens, UniProt P41595) (P41595 whole entry): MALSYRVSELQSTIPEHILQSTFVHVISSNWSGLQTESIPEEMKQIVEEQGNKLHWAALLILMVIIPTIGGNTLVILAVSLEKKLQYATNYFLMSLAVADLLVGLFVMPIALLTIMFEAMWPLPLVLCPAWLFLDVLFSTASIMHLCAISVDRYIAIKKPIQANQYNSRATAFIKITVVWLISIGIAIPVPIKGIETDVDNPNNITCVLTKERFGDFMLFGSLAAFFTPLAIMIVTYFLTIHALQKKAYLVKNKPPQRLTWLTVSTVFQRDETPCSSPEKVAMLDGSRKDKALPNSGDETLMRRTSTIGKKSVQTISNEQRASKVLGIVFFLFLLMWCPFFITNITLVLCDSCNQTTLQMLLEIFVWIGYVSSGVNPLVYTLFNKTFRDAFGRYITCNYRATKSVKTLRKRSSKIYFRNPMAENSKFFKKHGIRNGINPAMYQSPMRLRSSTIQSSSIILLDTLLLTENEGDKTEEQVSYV
Experiment [9] deals with 348 GPCRs (Homo sapiens, UniProt P28223). The note with it: 10µM, Favipiravir 100μM.
Chain of 348 GPCRs (Homo sapiens, UniProt P28223) (P28223 whole entry): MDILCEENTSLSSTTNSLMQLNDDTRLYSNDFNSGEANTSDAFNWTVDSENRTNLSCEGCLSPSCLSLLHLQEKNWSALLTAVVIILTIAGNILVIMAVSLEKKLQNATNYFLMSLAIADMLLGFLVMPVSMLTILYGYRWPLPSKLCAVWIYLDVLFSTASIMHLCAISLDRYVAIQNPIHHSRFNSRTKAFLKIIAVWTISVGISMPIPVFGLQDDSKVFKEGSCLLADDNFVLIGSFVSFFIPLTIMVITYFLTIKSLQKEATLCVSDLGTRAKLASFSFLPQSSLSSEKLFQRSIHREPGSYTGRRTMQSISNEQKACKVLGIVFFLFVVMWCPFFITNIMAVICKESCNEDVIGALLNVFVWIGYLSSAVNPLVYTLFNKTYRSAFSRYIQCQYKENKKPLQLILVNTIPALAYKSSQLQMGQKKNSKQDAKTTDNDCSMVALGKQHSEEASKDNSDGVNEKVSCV
Where [10] appears, read: HTR4 (5-hydroxytryptamine (serotonin) receptor 4), read-out: % GPCR activation compared to TPA.
The mark [11] stands for this setting: TAAR2 (trace amine associated receptor 2), read-out: % GPCR activation compared to TPA.
Setting [12] is: GPR84 (G protein-coupled receptor 84), read-out: % GPCR activation compared to TPA.
The mark [13] stands for this setting: HTR2B (5-hydroxytryptamine (serotonin) receptor 2B), read-out: % GPCR activation compared to TPA.
Where [14] appears, read: 5-HT2A (5-hydroxytryptamine receptor 2A), read-out: % GPCR activation compared to TPA.
[15] abbreviates: read-out: % GPCR activation compared to TPA, GPCR α2C (adrenoceptor alpha 2C).
[16] abbreviates: read-out: % GPCR activation compared to TPA, HTR4 (5-hydroxytryptamine (serotonin) receptor 4).
[17] abbreviates: read-out: % GPCR activation compared to TPA, GPCR GPR114 (G-protein-coupled receptor 114 (ADGRG5)).
Setting [18] is: read-out: % GPCR activation compared to TPA, TAAR2 (trace amine associated receptor 2).
[19] abbreviates: read-out: % GPCR activation compared to TPA, GPR84 (G protein-coupled receptor 84).
[20] abbreviates: read-out: % GPCR activation compared to TPA, GPCR CXCR5 (C-X-C motif chemokine receptor 5).
The mark [21] stands for this setting: read-out: % GPCR activation compared to TPA, HTR2B (5-hydroxytryptamine (serotonin) receptor 2B).
Where [22] appears, read: read-out: % GPCR activation compared to TPA, 5-HT2A (5-hydroxytryptamine receptor 2A).
[23] abbreviates: GPCR α2C (adrenoceptor alpha 2C), read-out: % GPCR activation compared to TPA.
[24] abbreviates: GPCR GPR114 (G-protein-coupled receptor 114 (ADGRG5)), read-out: % GPCR activation compared to TPA.
The mark [25] stands for this setting: GPCR CXCR5 (C-X-C motif chemokine receptor 5), read-out: % GPCR activation compared to TPA.

Structures are written as SMILES. Where two headings read alike, the source gives them in different places.

T6 sequence (Q9NQS5 whole entry): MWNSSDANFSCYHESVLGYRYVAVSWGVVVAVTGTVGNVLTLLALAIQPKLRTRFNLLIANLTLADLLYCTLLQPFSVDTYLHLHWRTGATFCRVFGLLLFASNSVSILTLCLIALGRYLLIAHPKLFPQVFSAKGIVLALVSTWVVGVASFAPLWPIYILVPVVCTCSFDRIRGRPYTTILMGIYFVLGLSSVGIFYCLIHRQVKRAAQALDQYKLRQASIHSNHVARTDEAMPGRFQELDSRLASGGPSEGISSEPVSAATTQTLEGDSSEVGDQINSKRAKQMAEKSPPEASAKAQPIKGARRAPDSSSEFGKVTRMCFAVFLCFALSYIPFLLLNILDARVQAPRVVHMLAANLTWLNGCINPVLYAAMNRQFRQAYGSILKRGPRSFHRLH
T3 sequence (Q13639 whole entry): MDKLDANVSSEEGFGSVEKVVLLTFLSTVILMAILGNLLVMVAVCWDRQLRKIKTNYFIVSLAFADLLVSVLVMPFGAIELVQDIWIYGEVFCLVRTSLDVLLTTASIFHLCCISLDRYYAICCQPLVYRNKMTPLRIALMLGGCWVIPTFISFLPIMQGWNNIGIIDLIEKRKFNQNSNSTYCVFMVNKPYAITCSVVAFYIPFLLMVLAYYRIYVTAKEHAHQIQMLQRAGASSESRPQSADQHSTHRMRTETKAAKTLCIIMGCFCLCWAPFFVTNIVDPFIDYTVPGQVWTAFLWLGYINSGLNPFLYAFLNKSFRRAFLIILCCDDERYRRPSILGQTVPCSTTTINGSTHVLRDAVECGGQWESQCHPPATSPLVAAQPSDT

Turning to `NC(=O)c1nc(F)cnc1O` [favipiravir, 6-fluoro-3-hydroxy-2-pyrazinecarboxamide], the activation at 100 µM is 7% in [1] (GPCR α2C (adrenoceptor alpha 2C), 100μM, read-out: % GPCR activation compared to TPA); -3.64% in experiment [3] (setting [10]); -2.55% in experiment [4] (GPCR GPR114 (G-protein-coupled receptor 114 (ADGRG5)), 100μM, read-out: % GPCR activation compared to TPA); 0.753% in [5] (setting [11]); -0.768% in experiment [6] (setting [12]); -2.18% in experiment [7] (GPCR CXCR5 (C-X-C motif chemokine receptor 5), 100μM, read-out: % GPCR activation compared to TPA). Moreover, the activation at 100 µM in experiment [8] (setting [13]) was 0.187%; in experiment [9] (setting [14]), 2.2%. Further, in experiment [2], the “% GPCR activation compared to TPA” value is recorded as -0.3349%.
Turning to `CC(C)OC(=O)[C@H](C)N[P@](=O)(OC[C@H]1O[C@@H](n2ccc(=O)[nH]c2=O)[C@](C)(F)[C@@H]1O)Oc1ccccc1` [sofosbuvir], the activation at 10 µM in experiment [1] (setting [15]) is -4.42%; in experiment [4] (setting [17]), 0.492%; in [7] (setting [20]), -0.968%. Also, the “% GPCR activation compared to TPA” value in experiment [2] is -0.9167%. Also, the activation at 100 µM in experiment [3] (setting [16]) is -4.08%; in experiment [5] (setting [18]), -0.403%; in [6] (setting [19]), -3.67%; in experiment [8] (setting [21]) it was -0.398%; in [9] (setting [22]), -1.66%.
Consider `CCC(CC)COC(=O)[C@H](C)N[P@](=O)(OC[C@H]1O[C@@](C#N)(c2ccc3c(N)ncnn23)[C@H](O)[C@@H]1O)Oc1ccccc1` [remdesivir], for which the activation at 10 µM in experiment [1] (setting [15]) was 15.6%; in experiment [4] (setting [17]) it was -1.51%; in [7] (setting [20]), -0.166%. The activation at 100 µM in experiment [3] (setting [16]) was -2.24%; in experiment [5] (setting [18]), 1.05%; in experiment [6] (setting [19]) it was 2.57%; in experiment [8] (setting [21]), -4.14%; in [9] (setting [22]), 4.22%.
With `N#C[C@@]1(c2ccc3c(N)ncnn23)O[C@H](CO)[C@@H](O)[C@H]1O` [GS441524], the values for the activation at 10 µM in experiment [1] (setting [23]), in [4] (setting [24]) and in experiment [7] (setting [25]) were 2.32%, -2.76% and -2.05%, respectively. Besides, the “% GPCR activation compared to TPA” value in experiment [2] is on record as -0.998%. In addition, the activation at 100 µM in experiment [3] (setting [10]) is -1.56%; in experiment [5] (setting [11]), -1.42%; in [6] (setting [12]), 5.15%; in experiment [8] (setting [13]) it was 0.0796%; in experiment [9] (setting [14]), -1.21%.
On to `CC(C)C(=O)OC[C@H]1O[C@@H](n2ccc(NO)nc2=O)[C@H](O)[C@@H]1O` [molnupiravir], for which the results for the activation at 10 µM in experiment [1] (setting [23]), in experiment [4] (setting [24]) and in [7] (setting [25]) were -6.27%, -2.86% and -2%, respectively. In addition, the “% GPCR activation compared to TPA” value in experiment [2] stood at 0.5462%. In addition, the activation at 100 µM in [3] (setting [10]) is -3.37%; in [5] (setting [11]) it was -0.153%; in [6] (setting [12]) it was -3.53%; in [8] (setting [13]), -1.16%; in experiment [9] (setting [14]), -0.697%.
